Values quoted from earlier work as cited in patent US20030195350A1, “Individualization of therapy with antiviral agents” (priority 2001, published 2003).
Where two headings read alike, the source gives them in different places.

Legend:
[1] = in vivo; cited from earlier work
[2] = cited from earlier work; for AUC (mean±SD): single 600 mg dose, non-fasting
[3] = in vivo; cited from earlier work; remark: listed apart in the source
HIV-1 = conditions: cited from earlier work
HIV isolates = conditions: one ZDV-resistant HIV isolate in vitro; cited from earlier work
HIV = conditions: cited from earlier work

## CC(C)c1nc(CN(C)C(=O)N[C@H](C(=O)N[C@@H](Cc2ccccc2)C[C@H](O)[C@H](Cc2ccccc2)NC(=O)OCc2cncs2)C(C)C)cs1 (relative stereo) [ritonavir, 10-Hydroxy-2-methyl-5-(1-methylethyl)-1-[2-(1-methylethyl)-4-thiazolyl]-3,6-dioxo-8,11-bis(phenylmethyl)-2,4,7,12-tetraazatridecan-13-oic acid, 5-thiazolylmethyl ester, [5S-(5R*,8R*,10R*,11R*)]]
[1]
  Adverse event: Depression: 1.7%
  Adverse event: Diarrhea: 15.4%
  Adverse event: Fecal Incontinence: 0.0%
  Adverse event: Vasodilation: 1.7%
[2]; HIV-infected individuals ages 2 to 14 years
  steady-state oral clearance (CL/F/m^2), pediatric vs adult: approximately 1.5 times
[2]; in vivo, po
  dose excreted in the feces: 86.4±2.9 % of the dose
  dose excreted in the feces as unchanged parent drug: 33.8±10.8 % of the dose
  dose excreted into the urine: 11.3±2.8 % of the dose
  dose excreted into the urine as unchanged parent drug: 3.5±1.8 % of the dose
  effect of dilution of oral solution on extent and rate of absorption: did not significantly affect
[2]; in vivo
  renal clearance: negligible
[2]; oral solution (n=18)
  AUC (mean±SD): 129.0 ± 39.3 µg·h/mL
[2]; soft gelatin capsule (n=57)
  AUC (mean±SD): 121.7 ± 53.8 µg·h/mL
[3]
  Adverse event: Depression: 1.7%
  Adverse event: Fecal Incontinence: 0.0%
  Adverse event: Vasodilation: 1.7%
HIV-1; MT 4 cells, with either zidovudine (ZDV) or didanosine (ddI)
  effect against HIV-1 in combination: additive effects
HIV-1; read-out: average EC50, low passage clinical isolates (n=13)
  EC50: 22 nM
HIV isolates
  susceptibility of ZDV-resistant HIV isolate: retained full susceptibility
HIV; double-blind phase of Study 247, 600 mg b.i.d.
  cumulative incidence of clinical disease progression or death: 26%
HIV; through end of open-label follow-up phase, Study 247
  cumulative mortality: 18%
